The inhibition is the change of the read-out against control, counted positive when it falls.

The text below walks through data of patent publication US20220041578A1, “ISOINDOLINE COMPOUND, AND PREPARATION METHOD, PHARMACEUTICAL COMPOSITION, AND APPLICATION OF ISOINDOLINE COMPOUND” (Shanghai Institute of Meteria Medica, Chinese Academy of …, priority 2018, published 2022).

Holding throughout (type): cell-based
Assay [1] has as its system MV-4-11 cells. The assay is described as follows: Effect of the compound on proliferation of MV-4-11 cells (MTS). The following applies: Homo sapiens. How it is done:
MV-4-11 cells were cultured with IMDM plus 10% fetal bovine serum and collected. The cell concentration was diluted according to the action time of 7 days, and 180 ul of cell suspension was added to each well of a 96-well cell plate to make the cell count to be 2000. 20 ul of DMSO with a final concentration of 0.2% was added to the control cell wells. The compound was diluted 5-fold with the 10 mM stock solution, and 20 ul was also added to the compound cell wells (the final concentration of DMSO was 0.2%). The cells were placed in a 37° C., 5% CO2 incubator and incubated for 7 days. After preparing the reaction solution according to the MTS kit (Promega, G5430), 20 μL was added to each well, incubated in a 37° C., 5% CO2 incubator for 3-4 h. Read the 490 nm absorbance value with a microtiter plate, and used the 690 nm absorbance value as the background value and OD490-OD690 as the final initial data. The formula for calculating the inhibition rate of the compound was: inhibition rate=(OD DMSO-ODcompound)/(ODDMSO-Oblank)×100%. The compound's proliferation inhibition IC50 was fitted by Graph Pad Prism 5.0. The experiment was repeated three times, and three parallel experiments were used to calculate the average and standard deviation each time. The cell viability test results were shown in Table 3: A means cell viability IC50<1 μM, B means cell viability 1 μM≤IC50≤20 μM, C means cell viability IC50>20 μM.

Assay [2] concerns prostate cancer cells PC-3. The assay is described as follows: Proliferation of other tumor cells, PC-3 (WST-8). To be noted: Homo sapiens, 96 h, PC-3 cells, 4 days, read-out: Inhibitory activity on proliferation, PC-3 (IC50). How it is done: The human triple negative breast cancer cells MDA-MB-468 and MDA-MB-231 used in this experiment were purchased from the Shanghai Cell Bank, in which L-15 medium added with 10% fetal bovine serum (FBS) and 1% double antibody was used. At 37° C., MDA-MB-468 and MDA-MB-231 cells were cultured in an incubator without CO2. Colorectal cancer cells HCT-116 were cultured in McCOY's 5A medium with 1% double antibody and 10% fetal bovine serum (FBS); prostate cancer cells DU145 were cultured in MEM medium with 1% double antibody and 10% fetal bovine serum (FBS); prostate cancer cells PC-3 were cultured in F-12 K medium with 1% double antibody and 10% fetal bovine serum (FBS); grew at 37° C., 5% CO2.
In the cell activity test experiment, 90 μL cell suspension with appropriate concentration was added to a 96-well cell culture plate according to the cell growth, each compound to be tested was gradient diluted with the corresponding medium, 10 μL diluted compound was added to 90 μL cells, and then incubated at 37° C. for 4 days. Cell proliferation was analyzed by WST-8, which could be reduced by lactate dehydrogenase in the cells to a yellow formazan. 10 μL of WST-8 reagent (DOJINDO) was added to the cells and reacted for more than 1 hour at 37° C., DMSO-treated cells were used as […]. The absorption value of 490 nm was read by enzyme-labeled plate, and the absorption value of 690 nm was taken as the background value, and OD490-OD690 was taken as the final original data, and the data was processed by GraphPad Prism6 software. The formula for calculating the inhibition rate of the compound was: inhibition rate=(ODDMSO−ODcompound)/(ODDMSO−Oblank)×100%. The compound's proliferation inhibition IC50 was fitted by Graph Pad Prism 5.0. The experiment was repeated three times, and three parallel experiments were used to calculate the average and standard deviation each time. The cell viability test results were shown in Table 4: A means cell viability IC50<1 μM, B means cell viability 1 μM≤IC50≤20 μM, C means cell viability IC50>20 μM, NT means not tested.
For orientation: Tetrazolium assays rely on reduction of a dye to a coloured formazan, in cell work by metabolically active cells.

The test system of assay [3] is TNF-α. The assay can be described thus: TNF-α activity inhibition experiment in LPS-stimulated PBMC (ELISA). The following applies: Homo sapiens, compound 10 nM, LPS 1 ug/ml, 72 hours, read-out: Inhibition rate of TNF-a (%). The method, then:
(§1) All operations of this experiment were carried out according to the conventional experimental process of this kind of experiment at present. Peripheral blood from healthy volunteers was collected by routine standard procedure and cultured in 1640 medium (+10% FBS) to obtain PBMC. After recovery, PBMC was centrifuged and resuspended in serum-free medium. After counting, adjusted the density to be 6.25×10^5/ml; then inoculated 160 ul to a 96-well plate, 1×10^5/well; 20 ul 10× compound and DMSO were added, and incubated for 1 hour in an incubator; then 20 ul 10 XLPS was added resulting the final concentration of 1 ug/ml and incubated in an incubator for 72 hours. Centrifuged the cell plate at 1500 rpm and aspirated 50 ul supernatant according to the ELISA operation. After operating according to the kit, a microplate reader was used to read at 450 nm. The concentration of compound was 10 nM, and DMSO was added as control group. Materials used in this experiment: 96 well plate (Corning, #3599), ELISA kit (Thermo), LPS (Sigma, USA).

Assay [4] deals with IL-2. The assay is described as follows: IL-2 expression change in anti-human CD3 stimulated PBMC (ELISA). The following applies: compound 10 nM, anti-human CD3 10 ug/ml, 24 hours. The method, then: as §1, with “plate, 2 holes each,” for “plate,”, “ul 10× anti-human CD3” for “ul 10 XLPS”, “of 10” for “of 1”, “for 24” for “for 72”

Where two headings read alike, the source gives them in different places.

In the case of `Nc1cccc2c1CN(C1CCC(=O)NC1=O)C2=O` (centres unmarked) [Lenalidomide, lenalidomide, reference compound], the IC50 in assay [1] (MV4-11, 168 h, 7 days, MTS, read-out: Inhibitory activity (IC50)) was > 20 µM; in assay [1] (MV4-11, read-out: cytostatic activity (IC50) on MV-4-11 cells), > 20 µM; in assay [2], > 20 µM. Further, the inhibition at 0.01 µM in assay [3] was < 50%. In addition, in assay [4], the “Increase multiple of IL-2 Expression” value is on record as >3.
